{"source": "patent US11998551B2", "about": "“Treatment of mitochondrial diseases” (FUNDACIÓ HOSPITAL UNIVERSITARI VALL D'HEBRON-INSTITUT DE …, priority 2015, dated 2024)", "system": "quiescent fibroblasts from healthy controls", "experiment": "mtDNA copy number (quantitative PCR) after EtBr-forced depletion in quiescent fibroblasts from healthy controls", "type": "cell-based, human", "conditions": "control cells, 14 days exposure to 5 ng/ml EtBr", "protocol": "Primary cultured fibroblasts were obtained from skin biopsies of patients 1-3 and 4 healthy donors. All subjects gave informed consent in accordance with our Institutional Review Boards and the Declaration of Helsinki.\nCells were seeded in 6-well plates of 9.5 cm^2 in Dulbecco's modified Eagle's medium (DMEM) with 4.5 g/L glucose, supplemented with 2 mM L-glutamine, 100 U/ml penicillin and streptomycin, and 10% dialyzed Fetal Bovine Serum (FBS) (Invitrogen) in a humidified incubator at 37° C. and 5% CO2. After tight confluence was reached, FBS was reduced to 0.1% to induce quiescence and simultaneous treatment with 5 ng/ml of EtBr (ethidium bromide, Merck) was initiated (day 0, t0). Cell media was replaced with the same treatment every 2-3 days for two weeks. At day 14 (t14) EtBr was withdrawn from cell media and the treatment of a set of all cells was initiated with 200 μM of all four deoxynucleosides (dNs): dAdo (deoxyadenosine, Sigma), dCtd (deoxycytidine, Sigma), dGuo (deoxyguanosine, Sigma), dThd (deoxythymidine, Sigma) and 5 μM EHNA (Sigma). A set of cells was left untreated and all parameters were monitored in parallel. Cell media was replaced with the same treatment every 2-3 days for 12 additional days. At days 16 or 17 media were collected and stored at −20° C. until further use. […]\nmtDNA copy number was assessed by quantitative PCR as previously described. […]"}
{"smiles": "CC[n+]1c(-c2ccccc2)c2cc(N)ccc2c2ccc(N)cc21", "note": "[EtBr, ethidium bromide]", "values": [{"measurement": "averaged percentage of mtDNA residual levels ± SE", "value": "39.68±6.6", "unit": "%"}]}
